Tests used:
[1] = test system: Tie2 vs. KDR; details: Albert et al. Mol. Cancer. Ther. 2006, 5, 995; cited from earlier work
[2] = test system: Tie2 vs. KDR; details: Albert et al. Mol. Cancer. Ther. 2006, 5, 995; cited from earlier work; remark: listed apart in the source
[3] = target: T1, human c-kit (Homo sapiens, UniProt P10721); assay: cKIT-Kinase HTRF-Assay (assay 4); format: biochemical; details: for IC50: GST-tagged kinase domain of human c-kit, 10 μM ATP; for Selectivity vs. cKit: IC50 assay 4/IC50 assay 2
T1 construct: GST-tagged recombinant kinase domain of the human c-kit; GST; host or cells: SF-9 insect cells
T1 sequence (P10721 589-937 limits assumed): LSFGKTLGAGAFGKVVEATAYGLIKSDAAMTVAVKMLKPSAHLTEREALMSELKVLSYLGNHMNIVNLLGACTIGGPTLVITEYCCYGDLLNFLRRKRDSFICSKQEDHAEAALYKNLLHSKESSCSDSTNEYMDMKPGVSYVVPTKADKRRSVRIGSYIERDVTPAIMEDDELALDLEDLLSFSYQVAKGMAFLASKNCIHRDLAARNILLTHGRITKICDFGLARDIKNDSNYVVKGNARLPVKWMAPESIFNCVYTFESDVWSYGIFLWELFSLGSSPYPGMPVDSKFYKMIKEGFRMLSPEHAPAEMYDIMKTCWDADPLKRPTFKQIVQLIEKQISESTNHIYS
Protocol: Assay 4: cKIT-Kinase HTRF-Assay
c-Kit-inhibitory activity of compounds of the present invention was quantified employing the c-kit HTRF assay as described in the following paragraphs. GST-tagged recombinant kinase domain of the human c-kit expressed in SF-9 cells was used as kinase. As substrate for the kinase reaction biotinylated poly-(Glu,Tyr) (Cis biointernational, France) was used.
c-Kit was incubated for 30 min at 22° C. in the presence of different concentrations of test compounds in 5 μl assay buffer [50 mM Hepes/NaOH pH 7.0, 1 mM MgCl2, 5 mM MnCl2, 1.0 mM dithiothreitol, 0.1 mM sodium ortho-vanadate, 10 μM adenosine-tri-phosphate (ATP), 1.3 μg/ml substrate, 0.001% (v/v) Nonidet-P40 (Sigma), 1% (v/v) dimethylsulfoxide]. The concentration of c-kit was adjusted depending of the activity of the enzyme lot and was chosen appropriate to have the assay in the linear range. The reaction was stopped by the addition of 5 μl of a solution of HTRF detection reagents (0.1 μM streptavidine-XLent and 1 nM PT66-Eu-Chelate, an europium-chelate labelled anti-phospho-tyrosine antibody from Perkin Elmer) in an aqueous EDTA-solution (80 mM EDTA, 0.2% (w/v) bovine serum albumin in 50 mM HEPES/NaOH pH 7.0).
(§1) The resulting mixture was incubated 1 h at 22° C. to allow the binding of the biotinylated phosphorylated peptide to the streptavidine-XLent and the PT66-Eu-Chelate. Subsequently the amount of phosphorylated substrate was evaluated by measurement of the resonance energy transfer from the PT66-Eu-Chelate to the streptavidine-XLent. Therefore, the fluorescence emissions at 620 nm and 665 nm after excitation at 350 nm was measured in a HTRF reader, e.g. a Rubystar (BMG Labtechnologies, Offenburg, Germany) or a Viewlux (Perkin-Elmer). The ratio of the emissions at 665 nm and at 622 nm was taken as the measure for the amount of phosphorylated substrate.

[4] = target: T2, Tie2 (Homo sapiens, UniProt Q02763); assay: Tie2 ELISA assay (assay 1): cellular Tie2 autophosphorylation; format: cell-based; parameters: expressed in transfected cells; host or cells: CHO (DHFR-deficient), stably transfected; details: CHO cells stably transfected with Tie2, stimulated by angiopoietin-2; Tie2 autophosphorylation by sandwich-ELISA; read-out: Tie 2 activity (assay 1)
Protocol: Assay 1: Tie2 ELISA Assay
Cellular activity of compounds of the present invention as inhibitors of Tie2 kinase activity was measured employing a Tie2 ELISA assay as described in the following paragraphs. Herein CHO cell-cultures, which are stably transfected by known techniques with Tie2 using DHFR deficiency as selection marker, are stimulated by angiopoietin-2. The specific autophosphorylation of Tie2 receptors is quantified with a sandwich-ELISA using anti-Tie2 antibodies for catch and anti-phosphotyrosine antibodies coupled to HRP for detection. […]
Target sequence in this assay (Q02763 23-1124): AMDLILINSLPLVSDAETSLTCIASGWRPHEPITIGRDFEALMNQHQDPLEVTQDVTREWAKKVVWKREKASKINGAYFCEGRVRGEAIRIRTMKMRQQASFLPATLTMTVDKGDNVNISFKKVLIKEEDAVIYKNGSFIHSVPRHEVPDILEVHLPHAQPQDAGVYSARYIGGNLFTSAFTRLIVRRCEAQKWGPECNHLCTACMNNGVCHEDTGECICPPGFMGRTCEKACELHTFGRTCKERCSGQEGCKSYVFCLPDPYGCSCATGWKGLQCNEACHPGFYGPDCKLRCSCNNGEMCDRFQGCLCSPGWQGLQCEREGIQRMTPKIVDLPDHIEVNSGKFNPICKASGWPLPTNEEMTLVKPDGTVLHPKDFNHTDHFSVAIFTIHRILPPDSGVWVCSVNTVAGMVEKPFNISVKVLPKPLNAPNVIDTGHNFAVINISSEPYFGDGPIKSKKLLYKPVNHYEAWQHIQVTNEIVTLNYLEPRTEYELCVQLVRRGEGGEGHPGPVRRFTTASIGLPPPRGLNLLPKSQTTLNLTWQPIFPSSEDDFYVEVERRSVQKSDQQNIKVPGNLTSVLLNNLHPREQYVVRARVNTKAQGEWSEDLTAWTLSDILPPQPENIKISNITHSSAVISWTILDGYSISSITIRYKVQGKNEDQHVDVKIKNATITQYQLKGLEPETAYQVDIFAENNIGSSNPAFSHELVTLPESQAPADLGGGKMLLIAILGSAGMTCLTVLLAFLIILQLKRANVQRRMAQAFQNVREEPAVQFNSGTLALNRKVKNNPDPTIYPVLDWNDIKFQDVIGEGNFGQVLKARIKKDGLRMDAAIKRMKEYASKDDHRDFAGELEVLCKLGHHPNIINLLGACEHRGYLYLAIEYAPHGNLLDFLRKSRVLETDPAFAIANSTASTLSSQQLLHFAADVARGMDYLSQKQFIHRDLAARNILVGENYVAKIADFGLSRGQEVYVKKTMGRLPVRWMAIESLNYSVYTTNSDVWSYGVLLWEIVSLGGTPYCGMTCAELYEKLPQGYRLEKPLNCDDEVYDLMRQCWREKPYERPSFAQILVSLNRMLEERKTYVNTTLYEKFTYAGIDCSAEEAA

[5] = target: T2, Tie2; assay: Tie-2-Kinase HTRF-Assay without kinase preactivation (assay 2); format: biochemical; parameters: A recombinant fusion protein of GST and the intracellular domains of Tie-2; GST; made in house; host or cells: insect cells (Hi-5); details: GST-Tie-2 intracellular domains, no preactivation, 10 μM ATP
Description: Assay 2: Tie-2-Kinase HTRF-Assay without Kinase Preactivation
Tie2-inhibitory activity of compounds of the present invention was quantified employing two Tie2 HTRF assay as described in the following paragraphs.
A recombinant fusion protein of GST and the intracellular domains of Tie-2, expressed in insect cells (Hi-5) and purified by Glutathion-Sepharose affinity chromatography was used as kinase. Alternatively, commercially available GST-Tie2-fusion protein (Upstate Biotechnology, Dundee, Scotland) can be used As substrate for the kinase reaction the biotinylated peptide biotin-Ahx-[…] (C-terminus in amid form) was used which can be purchased e.g. from the company Biosynthan GmbH (Berlin-Buch, Germany). Detection of phosphorylated product is achieved specifically by a trimeric detection complex consisting of the phosphorylated substrate, streptavidin-XLent (SA-XLent) which binds to biotin, and Europium Cryptate-labeled anti-phosphotyrosine antibody PT66 which binds to phosphorylated tyrosine.
The reaction was stopped by the addition of 5 μl of an aqueous buffer (25 mM Hepes/NaOH pH 7.5, 0.28% (w/v) bovine serum albumin) containing EDTA (90 mM) and the HTRF (Homogeneous Time Resolved Fluorescence) detection reagents streptavidine-XLent (0.2 μM, from Cis Biointernational, Marcoule, France) and PT66-Eu-Chelate (0.3 ng/μl; a europium-chelate labelled anti-phospho-tyrosine antibody from Perkin Elmer).
as §1, with “substrate peptide” for “substrate”, “substrate peptide.” for “substrate.”
Target sequence in this assay (Q02763 770-1124 limits assumed): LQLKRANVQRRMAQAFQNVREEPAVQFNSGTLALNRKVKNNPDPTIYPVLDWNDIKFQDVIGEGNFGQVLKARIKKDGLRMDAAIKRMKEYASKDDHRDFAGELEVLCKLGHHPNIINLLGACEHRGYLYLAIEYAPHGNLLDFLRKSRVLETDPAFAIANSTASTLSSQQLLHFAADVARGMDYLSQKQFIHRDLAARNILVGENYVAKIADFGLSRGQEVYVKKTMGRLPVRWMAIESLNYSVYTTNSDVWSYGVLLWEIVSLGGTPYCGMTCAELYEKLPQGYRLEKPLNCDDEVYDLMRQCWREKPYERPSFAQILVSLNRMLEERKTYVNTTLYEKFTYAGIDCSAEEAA

Compound	IC50 [3]	Selectivity vs. cKit [3]	IC50 [4]	IC50 [5]	times less active against Tie2 vs. KDR in enzymatic assays [1]	times less active against Tie2 than KDR in cellular assays [2]
Cc1ccc(F)c(NC(=O)Nc2ccc(-c3cccc4[nH]nc(N)c34)cc2)c1 [PA1, 1-[4-(3-Amino-1H-indazol-4-yl)-phenyl]-3-(2-fluoro-5-methyl-phenyl)-urea]					~40 times	~1000 times
CCOC(=O)C1(c2cc(-c3ccc(NC(=O)Nc4ccccc4)cc3)c3c(N)nn(C)c3n2)CC1 [Example 1.1, 1-{3-Amino-1-methyl-4-[4-(3-phenyl-ureido)-phenyl]-1H-pyra-zolo[3,4-b]pyridin-6-yl}-cyclopropanecarboxylic acid ethyl ester]	1000 to 10000 nM	4	100 to 1000 nM	100 to 1000 nM		
Cc1ccc(F)c(NC(=O)Nc2ccc(-c3cc(C4(C(=O)N(C)C)CC4)nc4c3c(N)nn4C)cc2)c1 [Example 4.4, 1-(3-Amino-4-{4-[3-(2-fluoro-5-methyl-phenyl)-ureido]-phenyl}-1-methyl-1H-pyrazolo[3,4-b]pyridin-6-yl)-cyclopropanecarboxylic acid dimethylamide]	1000 to 10000 nM	15	≤ 100 nM	≤ 100 nM		
CCNC(=O)C1(c2cc(-c3ccc(NC(=O)Nc4cccc(C(F)(F)F)c4)cc3)c3c(N)nn(C)c3n2)CC1 [Example 1.5, 1-(3-Amino-1-methyl-4-{4-[3-(3-trifluoromethyl-phenyl)-ureido]-phenyl}-1H-pyrazolo[3,4-b]pyridin-6-yl)-cyclopropanecarboxylic acid ethylamide]	1000 to 10000 nM	>100	100 to 1000 nM	≤ 100 nM		
CCOC(=O)C1(c2cc(-c3ccc(NC(=O)Nc4cccc(C(F)(F)F)c4)cc3)c3c(N)nn(C)c3n2)CC1 [Example 1.2, 1-(3-Amino-1-methyl-4-{4-[3-(3-trifluoromethyl-phenyl)-ureido]-phenyl}-1H-pyrazolo[3,4-b]pyridin-6-yl)-cyclopropanecarboxylic acid ethyl ester]	1000 to 10000 nM	>30	≤ 100 nM	≤ 100 nM		
Cn1nc(N)c2c(-c3ccc(NC(=O)Nc4cccc(C(F)(F)F)c4)cc3)cc(C3(C(=O)Nc4ccccc4)CC3)nc21 [Example 1.7, 1-(3-Amino-1-methyl-4-{4-[3-(3-trifluoromethyl-phenyl)-ureido]-phenyl}-1H-pyrazolo[3,4-b]pyridin-6-yl)-cyclopropanecarboxylic acid phenylamide]	1000 to 10000 nM	7	100 to 1000 nM	100 to 1000 nM		

More lines, main results first:

IC50 [3]	Selectivity vs. cKit [3]	IC50 [4]	IC50 [5]	Compound	times less active against Tie2 vs. KDR in enzymatic assays [1]	times less active against Tie2 than KDR in cellular assays [2]
≤ 100 nM	0.5	≤ 100 nM	100 to 1000 nM	Cc1ccc(F)c(NC(=O)Nc2ccc(-c3ccnc4c3c(N)nn4C)cc2)c1 [PA5, 1-[4-(3-Amino-1-methyl-1H-pyrazolo[3,4-b]pyridin-4-yl)-phenyl]-3-(2-fluoro-5-methyl-phenyl)-urea, reference compound]		
≤ 100 nM	0.06	1000 to 10000 nM	1000 to 10000 nM	Cn1nc(N)c2c(-c3ccc(NC(=O)Nc4ccccc4)cc3)ccnc21 [PA6, 1-[4-(3-Amino-1-methyl-1H-pyrazolo[3,4-b]pyridin-4-yl)-phenyl]-3-phenyl-urea, reference compound]		
100 to 1000 nM	9	≤ 100 nM	≤ 100 nM	Cn1nc(N)c2c(-c3ccc(NC(=O)Nc4cccc(C(F)(F)F)c4)cc3)cc(C3CCCCC3)nc21 [Example 7.1, 1-[4-(3-Amino-6-cyclohexyl-1-methyl-1H-pyrazolo[3,4-b]pyridin-4-yl)-phenyl]-3-(3-trifluoromethyl-phenyl)-urea]		
1000 to 10000 nM	30	≤ 100 nM	≤ 100 nM	COC(=O)C[C@@H]1C[C@H](c2cc(-c3ccc(NC(=O)Nc4cccc(C(F)(F)F)c4)cc3)c3c(N)nn(C)c3n2)C1(C)C [Example 8.2, [3-(3-Amino-1-methyl-4-{4-[3-(3-trifluoromethyl-phenyl)-ureido]-phenyl}-1H-pyrazolo[3,4-b]pyridin-6-yl)-2,2-dimethyl-cyclobutyl]-acetic acid methyl ester]		
≤ 100 nM	0.67	≤ 100 nM	≤ 100 nM	Nc1n[nH]c2nccc(-c3ccc(NC(=O)Nc4cccc(C(F)(F)F)c4)cc3)c12 [PA2, 1-[4-(3-Amino-1H-pyrazolo[3,4-b]pyridin-4-yl)-phenyl]-3-(3-trifluoromethyl-phenyl)-urea, reference compound]		

Source: patent US7825114B2, “Substituted aminopyrazolopyridines and salts thereof, pharmaceutical compositions comprising same, methods of preparing same and uses of same” (Bayer Schering Pharma AG, priority 2006, dated 2010)
